Article PMC11079024, “Identification of a family of species-selective complex I inhibitors as potential anthelmintics” (Nature Communications, 2024)
Values joined by “and” are separate entries in the source; they are usually repeats but may differ in a detail not shown here. Equal entries are not always repeated. Where two headings read alike, the source gives them in different places.

Target: C. elegans (N2) complex I (NADH:ubiquinone oxidoreductase) (Caenorhabditis elegans, UniProt P24887+Q93873+Q94360)
Sequence (Q94360 17-199): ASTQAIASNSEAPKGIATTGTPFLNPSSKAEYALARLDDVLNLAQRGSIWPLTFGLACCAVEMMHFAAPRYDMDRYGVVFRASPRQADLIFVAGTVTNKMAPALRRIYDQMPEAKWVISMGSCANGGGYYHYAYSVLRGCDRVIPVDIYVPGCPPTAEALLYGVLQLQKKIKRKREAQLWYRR
Sequence (P24887 whole entry): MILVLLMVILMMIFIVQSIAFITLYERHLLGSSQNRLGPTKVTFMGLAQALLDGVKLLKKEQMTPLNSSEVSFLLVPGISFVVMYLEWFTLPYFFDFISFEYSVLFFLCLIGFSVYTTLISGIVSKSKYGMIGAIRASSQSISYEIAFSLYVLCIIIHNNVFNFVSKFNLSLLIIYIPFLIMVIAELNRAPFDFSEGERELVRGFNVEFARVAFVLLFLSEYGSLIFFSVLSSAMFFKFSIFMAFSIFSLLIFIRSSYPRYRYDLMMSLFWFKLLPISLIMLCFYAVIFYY
Sequence (Q93873 31-482): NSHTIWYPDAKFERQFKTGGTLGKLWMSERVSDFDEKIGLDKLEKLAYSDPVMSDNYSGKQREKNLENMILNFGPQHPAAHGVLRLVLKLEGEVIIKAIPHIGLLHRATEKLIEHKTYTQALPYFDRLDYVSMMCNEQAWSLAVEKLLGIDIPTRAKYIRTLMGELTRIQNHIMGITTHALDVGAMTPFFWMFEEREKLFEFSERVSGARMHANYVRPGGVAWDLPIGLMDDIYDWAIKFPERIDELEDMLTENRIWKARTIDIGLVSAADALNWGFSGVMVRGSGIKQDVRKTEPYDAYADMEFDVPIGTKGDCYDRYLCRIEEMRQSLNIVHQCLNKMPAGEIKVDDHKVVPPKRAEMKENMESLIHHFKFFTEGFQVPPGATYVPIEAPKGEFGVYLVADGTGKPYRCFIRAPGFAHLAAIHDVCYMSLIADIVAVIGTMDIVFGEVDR
Experiment: biochemical
Assay type: biochemical
Procedure, shortened: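 Compounds were tested against freeze-thawed isolated mitochondria (0.2 mg/mL protein). NADH:decylubiquinone activity was monitored via DCIP absorbance at 600 nm, and the initial linear slope was normalised to solvent controls.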

[1] = C. elegans, Mean of replicates, read-out: Complex I activity, dose-response data
[2] = C. elegans, individual replicates (Rep), read-out: Complex I activity, dose-response data

COc1cc2c(cc1OC)C(C(C)c1ccc(CC(C)C)cc1)=NCC2 (stereo not drawn) [NPD10504]
remaining activity at 3 µM (3 µM, wild-type C. elegans mitochondria, single replicate, read-out: percent (%) in vitro complex I activity relative to solvent control): 61.4% | remaining activity at 15 µM (wild-type C. elegans mitochondria, mean of replicates, read-out: percent (%) in vitro complex I activity relative to solvent control): 13.5% | remaining activity at 15 µM (wild-type C. elegans mitochondria, single replicate, read-out: percent (%) in vitro complex I activity relative to solvent control): 12.3% | remaining activity at 37.5 µM (37.5 µM, wild-type C. elegans mitochondria, mean of replicates, read-out: percent (%) in vitro complex I activity relative to solvent control): 12.4% | remaining activity at 75 µM (75 µM, wild-type C. elegans mitochondria, mean of replicates, read-out: percent (%) in vitro complex I activity relative to solvent control): 12.3% | activity at 100 µM (100 µM compound, relative to solvent control, mean (SEM), read-out: % Activity Complex I): 4.22% | Percent in vitro activity, Complex I (single replicate Rep1-Rep4) (100 μM of NPD compound, C. elegans mitochondria, individual biological replicates, 100 µM): 0.000% and 7.255% and 9.637% | activity at 100 µM (100 μM of NPD compound, C. elegans mitochondria, mean of four biological replicates, read-out: Percent in vitro activity, Complex I (Mean)): 4.22% | activity at 0.0001 µM [1]: 100% | activity at 0.0001 µM [2]: 100% | activity at 0.0005 µM (C. elegans, dose 0.0005 µM, Mean of replicates, read-out: Complex I activity, dose-response data): 95.6% | Complex I activity, dose-response data (C. elegans, dose 0.0005 µM, individual replicates (Rep)): 99.245 and 96.022 and 93.047 | activity at 0.0005 µM (C. elegans, dose 0.0005 µM, individual replicates (Rep), read-out: Complex I activity, dose-response data): 94% | activity at 0.001 µM (C. elegans, dose 0.001 µM, Mean of replicates, read-out: Complex I activity, dose-response data): 95.6% | Complex I activity, dose-response data (C. elegans, dose 0.001 µM, individual replicates (Rep)): 101.885 and 91.805 and 98.125 | activity at 0.001 µM (C. elegans, dose 0.001 µM, individual replicates (Rep), read-out: Complex I activity, dose-response data): 90.6% | activity at 0.0025 µM (C. elegans, dose 0.0025 µM, Mean of replicates, read-out: Complex I activity, dose-response data): 95.4% | Complex I activity, dose-response data (C. elegans, dose 0.0025 µM, individual replicates (Rep)): 105.286 and 89.091 and 95.022 | activity at 0.0025 µM (C. elegans, dose 0.0025 µM, individual replicates (Rep), read-out: Complex I activity, dose-response data): 92.2% | activity at 0.005 µM (C. elegans, dose 0.005 µM, Mean of replicates, read-out: Complex I activity, dose-response data): 93.5% | Complex I activity, dose-response data (C. elegans, dose 0.005 µM, individual replicates (Rep)): 100.896 and 97.608 and 92.236 | activity at 0.005 µM (C. elegans, dose 0.005 µM, individual replicates (Rep), read-out: Complex I activity, dose-response data): 83.3% | activity at 0.013 µM (C. elegans, dose 0.013 µM, Mean of replicates, read-out: Complex I activity, dose-response data): 97.4% | Complex I activity, dose-response data (C. elegans, dose 0.013 µM, individual replicates (Rep)): 86.744 and 107.737 and 98.643 and 96.409 | activity at 0.025 µM (C. elegans, dose 0.025 µM, Mean of replicates, read-out: Complex I activity, dose-response data): 99.6% | Complex I activity, dose-response data (C. elegans, dose 0.025 µM, individual replicates (Rep)): 81.492 and 104.774 and 100.771 and 111.289 | activity at 0.063 µM (C. elegans, dose 0.063 µM, Mean of replicates, read-out: Complex I activity, dose-response data): 97% | Complex I activity, dose-response data (C. elegans, dose 0.063 µM, individual replicates (Rep)): 104.194 and 94.273 and 98.067 | activity at 0.063 µM (C. elegans, dose 0.063 µM, individual replicates (Rep), read-out: Complex I activity, dose-response data): 91.6% | activity at 0.125 µM (C. elegans, dose 0.125 µM, Mean of replicates, read-out: Complex I activity, dose-response data): 92.7% | Complex I activity, dose-response data (C. elegans, dose 0.125 µM, individual replicates (Rep)): 100.304 and 94.360 and 87.363 | activity at 0.125 µM (C. elegans, dose 0.125 µM, individual replicates (Rep), read-out: Complex I activity, dose-response data): 88.8% | activity at 0.313 µM (C. elegans, dose 0.313 µM, Mean of replicates, read-out: Complex I activity, dose-response data): 91.5% | Complex I activity, dose-response data (C. elegans, dose 0.313 µM, individual replicates (Rep)): 102.145 and 93.069 and 82.299 | activity at 0.313 µM (C. elegans, dose 0.313 µM, individual replicates (Rep), read-out: Complex I activity, dose-response data): 88.6% | activity at 0.625 µM [1]: 100% | activity at 0.625 µM [2]: 100% | activity at 1.5 µM (C. elegans, dose 1.5 µM, Mean of replicates, read-out: Complex I activity, dose-response data): 78.6% | Complex I activity, dose-response data (C. elegans, dose 1.5 µM, individual replicates (Rep)): 84.112 and 75.755 and 78.095 | activity at 1.5 µM (C. elegans, dose 1.5 µM, individual replicates (Rep), read-out: Complex I activity, dose-response data): 76.6% | activity at 3 µM (C. elegans, dose 3 µM, Mean of replicates, read-out: Complex I activity, dose-response data): 58.9% | Complex I activity, dose-response data (C. elegans, dose 3 µM, individual replicates (Rep)): 63.002 and 56.869 and 54.489 | activity at 3 µM (C. elegans, dose 3 µM, individual replicates (Rep), read-out: Complex I activity, dose-response data): 61.4% | activity at 15 µM (C. elegans, dose 15 µM, Mean of replicates, read-out: Complex I activity, dose-response data): 13.5% | Complex I activity, dose-response data (C. elegans, dose 15 µM, individual replicates (Rep)): 13.403 and 18.209 and 10.130 | activity at 15 µM (C. elegans, dose 15 µM, individual replicates (Rep), read-out: Complex I activity, dose-response data): 12.3% | activity at 37.5 µM (C. elegans, dose 37.5 µM, Mean of replicates, read-out: Complex I activity, dose-response data): 12.4% | Complex I activity, dose-response data (C. elegans, dose 37.5 µM, individual replicates (Rep)): 3.265 and 5.642 and 23.594 and 17.069 | activity at 75 µM (C. elegans, dose 75 µM, Mean of replicates, read-out: Complex I activity, dose-response data): 12.3% | Complex I activity, dose-response data (C. elegans, dose 75 µM, individual replicates (Rep)): 2.370 and 3.939 and 26.690 and 16.321 | IC50 (wild-type (N2) mitochondria, read-out: C. elegans Complex I IC50): 3.29 µM and 3.3 µM
